Source: patent US9446146B2, “Methods and agents for improving targeting of CD138 expressing tumor cells” (BIOTEST AG, priority 2007, dated 2016)

B1: huC242-DM4 (conjugate, chains of the INN, looked up)
VH: QVQLVQSGAEVKKPGETVKISCKASDYTFTYYGMNWVKQAPGQGLKWMGWIDTTTGEPTYAQKFQGRIAFSLETSASTAYLQIKSLKSEDTATYFCARRGPYNWYFDVWGQGTTVTVSS
VL: DIVMTQSPLSVPVTPGEPVSISCRSSKSLLHSNGNTYLYWFLQRPGQSPQLLIYRMSNLVSGVPDRFSGSGSGTAFTLRISRVEAEDVGVYYCLQHLEYPFTFGPGTKLELK
modifications: DM4 maytansinoid payload

Tests used:
[1] = test system: MOLP-8 human multiple myeloma xenografts; assay: Xenograft mouse experiments A Part I, MOLP-8, single iv bolus; assay type: in vivo, CB.17 SCID mice; conditions: for tumor growth compared with PBS-treated animals: single iv bolus 250 μg/kg (nBT062 antibody […])
Procedure: In these mice, subcutaneous tumors were established (female CB.17 SCID mice) by inoculation with MOLP-8 cell suspensions. Treatment with a single bolus intravenous injection was conducted when tumor volumes reached an average 113 mm^3. Changes in tumor volume and body weight were monitored twice per week.
Each mouse was inoculated with 1×10^7 MOLP-8 cells subcutaneously into the area under the right shoulder. The total volume was 0.2 ml per mouse, in which the ratio of serum-free medium to matrigel (BD Bioscience, Bedford, Mass.) was 1/1 (v/v). Prior to treatment, the xenograft tumors were monitored daily and were allowed to become established.
Eleven days after tumor cell inoculation, 42 mice were selected based on tumor volumes and body weights. […] The forty-two mice were randomly divided into seven groups (A-G) of six animals each based on tumor volume.
Each of six mice in Group A received 200 μl of PBS as vehicle control.
All agents were intravenously administered as a single bolus injection through a lateral tail vein with a 1 ml syringe fitted with a 27 gauge, ½ inch needle.

[2] = test system: MOLP-8 tumor xenografts; assay: Bulky MOLP-8 tumor model (Part II / Xenograft mouse experiments B); assay type: in vivo, SCID mice; conditions: 450 μg/kg dose; mean time to reach 160 mm^3 minus control
Procedure: In a second set of experiments, MOLP-8 cells (1.5×10^7 cells per mouse), suspended in a 50:50 mixture of serum free media and matrigel were injected subcutaneously in the area under the right shoulder in 100 μl. Tumor volumes reached about 80 mm^3 at day 11 and the mean of the controls was about 750 mm^3 at day 25, post cell inoculation. […] Each mouse in the control group (n=6) received 0.2 ml of sterile PBS administered into the lateral tail vein (i.v.) in a bolus injection. All treatment doses were based on conjugated maytansinoid. […] Mice were randomized into eleven groups (n=6) by tumor volume using the LabCat Program. The tumor volumes ranged from 40.0 to 152.5 mm^3. The mice were dosed based on the individual body weight.
Tumor size was measured twice per week in three dimensions using the LabCat System (Tumor Measurement and Tracking, Innovative Programming Associated, Inc., Princeton, N.J.).
In this set of experiments, eighty-five mice were inoculated with MOLP-8 cells (1.5×10^7 cells/mouse) subcutaneously in the right shoulder. […] Sixty-six SCID mice bearing bulky MOLP-8 tumors with a mean tumor volume of about 80 mm^3 were randomized into eleven treatment groups (n=6).

Molecule | tumor growth compared with PBS-treated animals [1] | homogeneity of anti-tumor activity in individual mice ([1]; single iv 250 μg/kg, FIG. 9) | TGD* [2]
COc1cc2cc(c1Cl)N(C)C(=O)C[C@H](OC(=O)[C@H](C)N(C)C(=O)CCC(C)(C)S)[C@]1(C)O[C@H]1[C@H](C)[C@@H]1C[C@@](O)(NC(=O)O1)[C@H](OC)/C=C/C=C(\C)C2 [DM4, N^2′-deacetyl-N^2′-(4-methyl-4-mercapto-1-oxopentyl)-maytansine] | did not cause any significant inhibition of tumor growth | – | –
B-B4-SPP-DM1 | marked delay in tumor growth | more heterogeneously and therefore less predicable | –
nBT062-DM1 | – | – | 18 days
B1 | did not cause any significant inhibition of tumor growth | – | –
